Results taken from patent US8536140B2, “Methods for treating inflammatory bowel disease” (MTI Meta Tech Inc., priority 2004, dated 2013).

Legend:
rat intestine = conditions: dietary, rat intestine in vivo; cited from earlier work
[1] = Distribution of ganglioside to the intestine (discussion)
CaCo-2 cells [2] = test: Lactate dehydrogenase (LDH) release cytotoxicity assay; type: cell-based, human
Description: The human colon cancer cell line, CaCo-2, was obtained from American Type Culture Collection (Manassas, Va.) and was grown (passage 50-65) under standard incubator conditions (humidified atmosphere, 5% CO2, 37° C.) as adherent monolayer cultures in T-flasks containing Earle's minimum essential medium (EMEM). The cell culture growth medium (pH 7.2) was supplemented with 10% (v/v) fetal bovine serum, 1% (v/v) antibiotic/antimycotic, 26 mM sodium bicarbonate, 10 mM HEPES and 1 mM pyruvic acid. Media was changed every 2-3 days and cell density and viability was assessed with a hemocytometer using the trypan blue dye exclusion method.
Human intestine CaCo-2 cells were seeded at a density of 400,000 cells/ml on a 24 well plate. At confluence, cells were switched into EMEM-4 (4% FBS) and treated with a range of GD3 concentrations (0-64 μg/ml) similar or higher than the amount in human milk on the apical side for 24 h under standard incubator conditions. […] In brief, cell lysates and supernatants were incubated with an enzyme/substrate solution for 30 min at room temperature and the absorbance of colored formazan product was measured at 490 nm with a microtiter plate reader (Molecular Devices, Sunnyvale, Calif.). Absorbance background reading under kit conditions was less than 0.075. Data were expressed as percentage LDH release from cells. […]

CaCo-2 cells [3] = test: Apical and basolateral GD3 uptake, retention, transfer and metabolism in CaCo-2 cell monolayers on trans-well plates; type: in vitro ADME, human
Description: Polarized, differentiated monolayers of CaCo-2 cells grown on trans-well plates were used as a model to study apical and basolateral GD3 uptake. CaCo-2 cells were seeded at a density of 2.5×10^7 cells/ml on 0.4 μm pore inserts in 24 well trans-well plates (Corning Inc., Acton, Mass.). The apical (upper) and basolateral (lower) compartments contained 100 μl and 600 μl of EMEM-10, respectively. CaCo-2 cells were grown to confluence and were differentiated twenty days prior to delivering gangliosides. After 20 days, CaCo-2 cells were differentiated and polarized with intact tight junctions, as confirmed by alkaline phosphatase activity and trans-epithelial resistance measurements (data not shown). On day 21, CaCo-2 cells were transferred into Hank's MEM-4, a low serum, low calcium medium containing no antibiotics to limit serum and calcium interference with ganglioside uptake and antibiotic effects on tight junction permeability. Serum present in the media aided in GD3 solubilization and micelle formation during sonication. CaCo-2 cells were incubated under standard conditions in the absence (control, MEM-4 alone) or presence of purified ganglioside GD3 in MEM-4 for 6, 24 and 48 h at a concentration of 5 or 10 μg/ml. The time frame for exposing human intestine CaCo-2 cells to ganglioside GD3 was chosen to be 6-48 h as previous work on ganglioside GM1 uptake by cultured cells predicts slow and incomplete ganglioside absorption from the apical side. […] The ganglioside treated cells received GD3 on either the BBM (apical) side or the BLM side of CaCo-2 cell monolayers. GD3 delivery on the apical and BLM side of CaCo-2 cells was used as an in vitro model for enteral and intravenous nutrient delivery, respectively. After GD3 incubation, apical and BLM supernatants were collected and cells were washed with PBS and Tris buffer containing EDTA. CaCo-2 cells from each trans-well insert were trypsinized, pooled together in Tris-mannitol buffer and sonicated to form cell lysates. Cell lysates were saved for protein and ganglioside analysis.
Total and individual gangliosides were measured with a colorimetric sialic acid assay as ganglioside bound N-acetyl neuraminic acid (GG-NANA). An aliquot of purified ganglioside sample was dried under N2 gas and dissolved with 0.5 ml of ddH20 and 0.5 ml of resorcinol-HCl in screw-capped Teflon-lined tubes. The purple-blue color developed by reacting resorcinol reagent with ganglioside sialic acid at 160° C. for 8 min was extracted into butylacetate/butanol (85:15, v/v) solvent. Optical density was read by a spectrophotometer at 580 nm. For quantitative analysis, N-acetyl neuraminic acid (also known as sialic acid) was used as a standard.
The following equations were used to calculate the percentage and amount of ganglioside GD3 taken up, retained, transferred and metabolized by human intestinal CaCo-2 cells following brush border membrane or basolateral membrane GD3 delivery. For all calculations the values obtained from the control were subtracted off the test groups to correct for small levels of ganglioside present in the serum and cells. In Equation 1, the % uptake=[(amount delivered-amount remaining)*100%] divided by the amount delivered. In Equation 2, the % retention=[amount cell*100%] divided by the amount uptake. In Equation 3, the % transfer=[amount receiving compartment*100%] is divided by the amount uptake. In Equation 4, the % metabolism=[amount uptake−amount retained−amount transferred*100%] divided by the amount uptake.
Sample size determination for a one tailed comparison at 80% power to detect a 4-5 fold increase in GM1 levels in skin fibroblasts (0.2 nmol/mg protein to 0.9 nmol/mg protein, P<0.05) requires a sample size of 3. All data are expressed as the mean±the standard error of the mean for a sample size of n=4 (4 different cell passages) for intestine cell sensitivity experiments and n=3-4 (3-4 different cell passages) for ganglioside GD3 absorption experiments. […]

Giardia cells = conditions: after 2 h, cited from earlier work

sphingomyelin
Apical uptake efficiency (rat intestine): 22-43%

II^3 NeuAc-LacCer [GM3]
Fraction that could have been distributed to the intestine [1]: ≤ 47.4%

II^3 (NeuAc)2-LacCer [GD3]
LDH release from cells (CaCo-2 cells [2]; 64 μg/ml, 24 h): significant release of LDH | Concentration at which toxicity to enterocytes begins (CaCo-2 cells [2]; after 24 h exposure): greater than 32 μg/ml | Apical GD3 uptake efficiency, maximum (CaCo-2 cells [3]; 10 μg/ml apical, after 24 h): 73% | GD3 uptake, basolateral compared to apical delivery (CaCo-2 cells [3]; 10 μg/ml, 6, 24 and 48 h): faster and more efficient | Time course of GD3 uptake (CaCo-2 cells [3]; 10 μg/ml, 6, 24 and 48 h at 37° C.): rapid and linear for the first 6 h | Amount of GD3 taken up from the basolateral membrane side when concentration doubled (CaCo-2 cells [3]; 5 or 10 μg/ml, 6 h at 37° C.): twice as high | Percent of GD3 taken up that was metabolized (CaCo-2 cells [3]; after 6 h apical exposure, 10 μg/ml): 96% | Drop of the percentage GD3 metabolized (CaCo-2 cells [3]; after 24 h apical exposure): 32% | GD3 incorporated (CaCo-2 cells [3]; apical delivery of 24 μg, after 24 h): 18.5 µg | Fate of basolateral membrane GD3 uptake (CaCo-2 cells [3]; following 24 h exposure, 10 μg/ml): completely metabolized

II^3 NeuAc-GgOse4Cer [GM1]
Ganglioside incorporated (Giardia cells): 2.4 µg | Maximal uptake efficiency (Giardia cells; same amount of ganglioside): 10% | Fraction that could have been distributed to the intestine [1]: at most 6%

CC(C)CCC[C@@H](C)[C@H]1CC[C@H]2[C@@H]3CC=C4C[C@@H](O)CC[C@]4(C)[C@H]3CC[C@]12C [cholesterol]
Apical uptake efficiency (rat intestine): 50%
